# In ChEMBL document CHEMBL5728082, “Aryl, heteroaryl, and heterocyclic compounds for treatment of medical disorders” (2020):
# Target: Complement factor D (Homo sapiens, UniProt P00746)
# Test: Inhibition Assay: Human Factor D (purified from human serum, Complement Technology, Inc.) at 80 nM final concentration was incubated with test compound at various concentrations for 5 minutes at room temperature in 50 mM Tris, 1M NaCl, pH 7.5. A synthetic substrate Z-L-Lys-SBzl and DTNB (Ellman's reagent) are added to final concentrations of 100 Î¼M each. […] IC50 values are calculated by nonlinear regression of complement Factor D reaction rates as a function of test compound concentration.
# Sequence of Complement factor D (P00746 whole entry): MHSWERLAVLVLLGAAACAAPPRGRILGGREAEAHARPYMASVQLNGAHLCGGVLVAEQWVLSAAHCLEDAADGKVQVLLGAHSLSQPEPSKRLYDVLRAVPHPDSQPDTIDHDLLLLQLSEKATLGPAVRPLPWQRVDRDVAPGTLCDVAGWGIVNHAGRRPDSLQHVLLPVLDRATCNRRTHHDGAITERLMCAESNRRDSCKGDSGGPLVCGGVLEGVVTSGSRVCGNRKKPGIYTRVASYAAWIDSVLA
smiles,measurement,value
CC(=O)c1nn(CC(=O)N2[C@H](C(=O)N[C@H](C)[C@H]3CC3(Cl)Cl)C[C@@]3(C)C[C@@H]23)c2ccc(-c3cnc(C)nc3)cc12,IC50,< 1 µM
